# Source: patent publication US10681909B2, “Herbicidal triazoles” (FMC Corporation, priority 2014, dated 2020)
# Assays:
# [1] = tested on: barnyardgrass; assay: Test A preemergence; type: in vivo, Echinochloa crus-galli; details: 0 to 100 scale (0 no effect, 100 complete control)
# Outline: (§1)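 Test chemicals in a non-phytotoxic solvent with surfactant were applied as a directed soil spray preemergence to seeds sown in loam/sand. Postemergence sprays went to plants 2–10 cm tall at the one- to two-leaf stage. A dash means no result.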
# [2] = tested on: foxtail, giant; assay: Test A preemergence; type: in vivo, Setaria faberii; details: 0 to 100 scale (0 no effect, 100 complete control)
# Outline: as §1
# [3] = tested on: pigweed; assay: Test A postemergence; type: in vivo, Amaranthus retroflexus; details: 0 to 100 scale (0 no effect, 100 complete control), approx. 10 d
# Outline: as §1
# [4] = tested on: wheat; assay: Test A postemergence; type: in vivo, Triticum aestivum; details: 0 to 100 scale (0 no effect, 100 complete control), approx. 10 d
# Outline: as §1
# [5] = tested on: sedge, umbrella; assay: Test B flooded paddy test; type: in vivo, Cyperus difformis; details: 250 g ai/ha, applied to paddy water at 2-leaf stage, visual rating after 13 to 15 d, scale 0 (no effect) to 100 (complete control)
# Outline: (§2)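 Pots were flooded to 3 cm above the soil at treatment, and compounds were applied directly into the paddy water. That depth was held throughout. After 13 to 15 d in a greenhouse, plants were rated visually against untreated controls.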
# [6] = tested on: barnyardgrass; assay: Test B flooded paddy test; type: in vivo, Echinochloa crus-galli; details: 250 g ai/ha, applied to paddy water at 2-leaf stage, visual rating after 13 to 15 d, scale 0 (no effect) to 100 (complete control)
# Outline: as §2
# [7] = tested on: barnyardgrass; assay: Test C preemergence; type: in vivo, Echinochloa crus-galli; details: for Plant response rating (scale of 0 to 100 where 0 is no effect and 100 is complete control): Barnyardgrass, preemergence; for Barnyardgrass plant response rating (0 to 100): Preemergence, visual rating after 13 to 15 d
# Outline: (§3)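 Surfactant-containing, non-phytotoxic solvent formulations of each compound were applied either preemergence to seeds in a loam soil–sand blend or postemergence to plants 2 to 18 cm tall (1- to 4-leaf stage). Postemergence plants were grown in peat moss–vermiculite medium.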
# [8] = tested on: galium; assay: Test C postemergence; type: in vivo, Galium aparine
# Outline: as §3
# [9] = tested on: corn; assay: Test C postemergence; type: in vivo, Zea mays
# Outline: as §3
# [10] = tested on: crabgrass, large; assay: Test C postemergence; type: in vivo, Digitaria sanguinalis
# Outline: as §3
# [11] = tested on: lambsquarters; assay: Test C postemergence; type: in vivo, Chenopodium album
# Outline: as §3
# [12] = tested on: morningglory; assay: Test C postemergence; type: in vivo, Ipomoea coccinea
# Outline: as §3
# [13] = tested on: soybean; assay: Test C postemergence; type: in vivo, Glycine max
# Outline: as §3
# [14] = tested on: waterhemp; assay: Test C postemergence; type: in vivo, Amaranthus rudis
# Outline: as §3
smiles,measurement,setting,value
FC(F)(F)COc1nc(-c2ccccc2)nn1Cc1ccnc(C(F)(F)F)c1 [Compound 24],"Plant response rating, Barnyardgrass",[1]; 125 g ai/ha,50
same,"Plant response rating, Barnyardgrass","[1]; 500 g ai/ha, approx. 10 d",90
same,"Plant response rating, Foxtail, Giant",[2]; 125 g ai/ha,100
same,"Plant response rating, Foxtail, Giant","[2]; 500 g ai/ha, approx. 10 d",100
same,"Plant response rating, Pigweed",[3]; 125 g ai/ha,90
same,"Plant response rating, Pigweed",[3]; 500 g ai/ha,100
same,"Plant response rating, Wheat",[4]; 125 g ai/ha,20
same,"Plant response rating, Wheat",[4]; 500 g ai/ha,30
same,"Plant response rating, Sedge, Umbrella, Flood",[5],85
same,"Plant response rating, Barnyardgrass, Flood",[6],30
same,Plant response rating (scale of 0 to 100 where 0 is no effect and 100 is complete control),[7]; 125 g ai/ha,80
same,Plant response rating (scale of 0 to 100 where 0 is no effect and 100 is complete control),[7]; 250 g ai/ha,85
same,Barnyardgrass plant response rating (0 to 100),[7]; 31 g ai/ha,10
same,Barnyardgrass plant response rating (0 to 100),[7]; 62 g ai/ha,45
same,Plant response rating (scale of 0 to 100 where 0 is no effect and 100 is complete control),[8]; 31 g ai/ha,70
same,Plant response rating (scale of 0 to 100 where 0 is no effect and 100 is complete control),[8]; 62 g ai/ha,80
same,Plant response rating (scale of 0 to 100 where 0 is no effect and 100 is complete control),[8]; 125 g ai/ha,80
same,Plant response rating (scale of 0 to 100 where 0 is no effect and 100 is complete control),[8]; 250 g ai/ha,95
same,Plant response rating (scale of 0 to 100 where 0 is no effect and 100 is complete control),[9]; 31 g ai/ha,20
same,Plant response rating (scale of 0 to 100 where 0 is no effect and 100 is complete control),[9]; 62 g ai/ha,20
same,Plant response rating (scale of 0 to 100 where 0 is no effect and 100 is complete control),[9]; 125 g ai/ha,25
same,Plant response rating (scale of 0 to 100 where 0 is no effect and 100 is complete control),[9]; 250 g ai/ha,30
same,Plant response rating (scale of 0 to 100 where 0 is no effect and 100 is complete control),[10]; 31 g ai/ha,15
same,Plant response rating (scale of 0 to 100 where 0 is no effect and 100 is complete control),[10]; 62 g ai/ha,10
same,Plant response rating (scale of 0 to 100 where 0 is no effect and 100 is complete control),[10]; 125 g ai/ha,25
same,Plant response rating (scale of 0 to 100 where 0 is no effect and 100 is complete control),[10]; 250 g ai/ha,35
same,Plant response rating (scale of 0 to 100 where 0 is no effect and 100 is complete control),[11]; 31 g ai/ha,100
same,Plant response rating (scale of 0 to 100 where 0 is no effect and 100 is complete control),[11]; 62 g ai/ha,100
same,Plant response rating (scale of 0 to 100 where 0 is no effect and 100 is complete control),[11]; 125 g ai/ha,100
same,Plant response rating (scale of 0 to 100 where 0 is no effect and 100 is complete control),[11]; 250 g ai/ha,100
same,Plant response rating (scale of 0 to 100 where 0 is no effect and 100 is complete control),[12]; 31 g ai/ha,98
same,Plant response rating (scale of 0 to 100 where 0 is no effect and 100 is complete control),[12]; 62 g ai/ha,98
same,Plant response rating (scale of 0 to 100 where 0 is no effect and 100 is complete control),[12]; 125 g ai/ha,90
same,Plant response rating (scale of 0 to 100 where 0 is no effect and 100 is complete control),[12]; 250 g ai/ha,95
same,Plant response rating (scale of 0 to 100 where 0 is no effect and 100 is complete control),[13]; 31 g ai/ha,55
same,Plant response rating (scale of 0 to 100 where 0 is no effect and 100 is complete control),[13]; 62 g ai/ha,40
same,Plant response rating (scale of 0 to 100 where 0 is no effect and 100 is complete control),[13]; 125 g ai/ha,55
same,Plant response rating (scale of 0 to 100 where 0 is no effect and 100 is complete control),[13]; 250 g ai/ha,40
same,Plant response rating (scale of 0 to 100 where 0 is no effect and 100 is complete control),[14]; 31 g ai/ha,100
same,Plant response rating (scale of 0 to 100 where 0 is no effect and 100 is complete control),[14]; 62 g ai/ha,98
same,Plant response rating (scale of 0 to 100 where 0 is no effect and 100 is complete control),[14]; 125 g ai/ha,98
same,Plant response rating (scale of 0 to 100 where 0 is no effect and 100 is complete control),[14]; 250 g ai/ha,98
FC(F)(F)COc1nc(-c2ccc(Cl)cc2)nn1Cc1ccnc(C(F)(F)F)c1 [Compound 31],"Plant response rating, Barnyardgrass",[1]; 125 g ai/ha,90
same,"Plant response rating, Barnyardgrass","[1]; 500 g ai/ha, approx. 10 d",90
same,"Plant response rating, Foxtail, Giant",[2]; 125 g ai/ha,100
same,"Plant response rating, Foxtail, Giant","[2]; 500 g ai/ha, approx. 10 d",100
same,"Plant response rating, Pigweed",[3]; 125 g ai/ha,100
same,"Plant response rating, Pigweed",[3]; 500 g ai/ha,100
same,"Plant response rating, Wheat",[4]; 125 g ai/ha,30
same,"Plant response rating, Wheat",[4]; 500 g ai/ha,40
same,"Plant response rating, Sedge, Umbrella, Flood",[5],100
same,"Plant response rating, Barnyardgrass, Flood",[6],40
same,Plant response rating (scale of 0 to 100 where 0 is no effect and 100 is complete control),[7]; 125 g ai/ha,90
same,Plant response rating (scale of 0 to 100 where 0 is no effect and 100 is complete control),[7]; 250 g ai/ha,95
same,Barnyardgrass plant response rating (0 to 100),[7]; 31 g ai/ha,70
same,Barnyardgrass plant response rating (0 to 100),[7]; 62 g ai/ha,80
same,Plant response rating (scale of 0 to 100 where 0 is no effect and 100 is complete control),[8]; 31 g ai/ha,80
same,Plant response rating (scale of 0 to 100 where 0 is no effect and 100 is complete control),[8]; 62 g ai/ha,80
same,Plant response rating (scale of 0 to 100 where 0 is no effect and 100 is complete control),[8]; 125 g ai/ha,80
same,Plant response rating (scale of 0 to 100 where 0 is no effect and 100 is complete control),[8]; 250 g ai/ha,80
same,Plant response rating (scale of 0 to 100 where 0 is no effect and 100 is complete control),[9]; 31 g ai/ha,40
same,Plant response rating (scale of 0 to 100 where 0 is no effect and 100 is complete control),[9]; 62 g ai/ha,20
same,Plant response rating (scale of 0 to 100 where 0 is no effect and 100 is complete control),[9]; 125 g ai/ha,20
same,Plant response rating (scale of 0 to 100 where 0 is no effect and 100 is complete control),[9]; 250 g ai/ha,30
same,Plant response rating (scale of 0 to 100 where 0 is no effect and 100 is complete control),[10]; 31 g ai/ha,20
same,Plant response rating (scale of 0 to 100 where 0 is no effect and 100 is complete control),[10]; 62 g ai/ha,35
same,Plant response rating (scale of 0 to 100 where 0 is no effect and 100 is complete control),[10]; 125 g ai/ha,60
same,Plant response rating (scale of 0 to 100 where 0 is no effect and 100 is complete control),[10]; 250 g ai/ha,80
same,Plant response rating (scale of 0 to 100 where 0 is no effect and 100 is complete control),[11]; 31 g ai/ha,98
same,Plant response rating (scale of 0 to 100 where 0 is no effect and 100 is complete control),[11]; 62 g ai/ha,100
same,Plant response rating (scale of 0 to 100 where 0 is no effect and 100 is complete control),[11]; 125 g ai/ha,100
same,Plant response rating (scale of 0 to 100 where 0 is no effect and 100 is complete control),[11]; 250 g ai/ha,100
same,Plant response rating (scale of 0 to 100 where 0 is no effect and 100 is complete control),[12]; 31 g ai/ha,95
same,Plant response rating (scale of 0 to 100 where 0 is no effect and 100 is complete control),[12]; 62 g ai/ha,60
same,Plant response rating (scale of 0 to 100 where 0 is no effect and 100 is complete control),[12]; 125 g ai/ha,75
same,Plant response rating (scale of 0 to 100 where 0 is no effect and 100 is complete control),[12]; 250 g ai/ha,100
same,Plant response rating (scale of 0 to 100 where 0 is no effect and 100 is complete control),[13]; 31 g ai/ha,40
same,Plant response rating (scale of 0 to 100 where 0 is no effect and 100 is complete control),[13]; 62 g ai/ha,65
same,Plant response rating (scale of 0 to 100 where 0 is no effect and 100 is complete control),[13]; 125 g ai/ha,35
same,Plant response rating (scale of 0 to 100 where 0 is no effect and 100 is complete control),[13]; 250 g ai/ha,65
same,Plant response rating (scale of 0 to 100 where 0 is no effect and 100 is complete control),[14]; 31 g ai/ha,95
same,Plant response rating (scale of 0 to 100 where 0 is no effect and 100 is complete control),[14]; 62 g ai/ha,98
same,Plant response rating (scale of 0 to 100 where 0 is no effect and 100 is complete control),[14]; 125 g ai/ha,100
same,Plant response rating (scale of 0 to 100 where 0 is no effect and 100 is complete control),[14]; 250 g ai/ha,98
